Patent US20130190299A1, “METHODS AND COMPOSITIONS FOR TREATMENT OF MULTIPLE SCLEROSIS” (Victoria Link Ltd., priority 2010, published 2013)

How the values were obtained:
[1] = system: bone marrow-derived macrophages; test: Bone marrow-derived macrophages treated in vitro with or without LPS; settings: for macrophage viability (MTT dye reduction): presence or absence of LPS
Procedure: Identification of how risperidone alters pro-inflammatory and/or anti-inflammatory immune responses is necessary.
Studies were conducted herein to evaluate the regulation of macrophage proinflammatory responses in vitro.

[2] = Body weight of treated normal and immunized mice; settings: for body weight in normal mice: normal (unimmunized) mice
prolactin = test: Serum prolactin in treated mice; type: in vivo; settings: for serum prolactin: immunized and unimmunized mice
[3] = Pajonk, 2004, cited from earlier work
microglia = test: Microglial reactivity by Iba-1 expression in brains of immunized mice; type: in vivo
Procedure: FIG. 9A illustrates exemplary Iba-1 expression on microglia in the cerebellum of mice. […] Tissue samples were taken at peak disease (15 days post immunization). Shown are the scores for microglia reactivity (Iba score) and disease.
One group (risperidone d11) was immunized but only received risperidone treatment starting at day 11 (i.e. after disease onset). Scores for Iba-1 reactivity were assessed blinded and derived from a combined score for Iba intensity (0-3) and # Iba+ foci (0-3).
Scores for Iba-1 reactivity were assessed blinded and derived from a combined score (0-6) for Iba intensity (0-3) and number of Iba+ foci (0-3). Scores for the following brain regions were combined: cerebellum, brain stem, hippocampus, and olfactory bulb (0-24).
Scores for Iba-1 reactivity in the cerebellum were assessed blinded and derived from a combined score (0-6) for Iba intensity (0-3) and number of Iba+ foci (0-3).
Studies were performed to assess microglial reactivity via the expression of Iba-1 (FIG. 9A-F).

α2-adrenergic receptors = settings: cited from earlier work
[4] = system: auto-reactive T cell responses; test: Cytokine production and T cell proliferation in response to MOG antigen or ConA, cells from treated immunized mice; type: cell-based, C57BL/6 mice
Excerpt: (§1) Shown are the mean and standard error of the mean (n=5 mice per group).
as §1, §1, §1, §1, §1
FIG. 5A illustrates exemplary antigen specific (L-17 production (pg/ml) in C57BL/6 mice, which were treated with risperidone or vehicle alone, and immunized to induce EAE 40 days earlier. Shown are the mean and standard error of the mean (n=5-10 mice per group).
FIG. 5B illustrates exemplary antigen specific interferon y production (pg/ml) in C57BL/6 mice, which were treated with risperidone or vehicle alone, and immunized to induce EAE 40 days earlier. Shown are the mean and standard error of the mean (n=5-10 mice per group).
FIG. 5C illustrates exemplary antigen specific IL-10 production (pg/ml) in C57BL/6 mice, which were treated with risperidone or vehicle alone, and immunized to induce EAE 40 days earlier. Shown are the mean and standard error of the mean (n=5-10 mice per group).
FIG. 5D illustrates exemplary T cell proliferation in counts per minute in immunized and normal C57BL/6 mice, which were treated with risperidone or vehicle alone. Shown are the mean and standard error of the mean (n=5-10 mice per group).
(§2) The effect of drug […] draining lymph node (LN) cells and splenocytes from untreated and risperidone-treated, immunized or unimmunized mice. Cytokine production in response to myelin oligodendrocyte glycoprotein antigen (MOG) can be assessed by cytokine bead assay, which measures 10 cytokines simultaneously, or ELISA, and proliferation can be measured by ^3H thymidine uptake. Cellular profiles in the spleen and lymph node cells can be determined by flow cytometric analysis and can include markers for helper T cells, T regulatory cells, and macrophages.

al-adrenergic receptors = settings: cited from earlier work
EAE [5] = test: EAE model in BALB/c mice immunized with PLP peptide
EAE [6] = system: EAE
Procedure: FIG. 1A illustrates an exemplary treatment of C57BL/6 mice with risperidone (administered in drinking water; 3 mg/kg/day) following immunization to induce EAE with MOG (myelin oligodendrocyte glycoprotein) peptide in complete Freund's adjuvant. Disease score is based on the progressive ascending paralysis that characterizes EAE in this animal model where 0=normal and 5=complete body paralysis (i.e. moribund).
FIG. 1B illustrates an exemplary treatment of C57BL/6 mice with risperidone (administered in drinking water; 3 mg/kg/day) following immunization to induce EAE. The data is from 4 separate and independent experiments.
AUC was measured from days 0-26 and the results are from 4 separate and independent experiments.
In these preliminary studies risperidone was given in the drinking water at a calculated dose of 1 or 3 mg/kg/day.
Commonly this time period is between 13-20 days post immunization with myelin oligodendrocyte glycoprotein (50 μg/mouse) in complete Freund's adjuvant and injected i.p with pertussis toxin (200 ng/mouse) on days 0 and 2. Treatment during the “chronic” stage (when disease scores remain stable) may begin 30 days post immunization with myelin oligodendrocyte glycoprotein. For all of these studies, the optimal dose of risperidone may be used as determined by the experiments described above. […] This model is well established and has the added benefit of having many different immunological reagents available for use in the C57BL/6 system.

[7] = system: splenic macrophages (F4/80+ cells); test: Activation markers on splenic macrophages of immunized mice at peak disease (flow cytometry); type: in vivo, C57BL/6 mice; settings: risperidone 3 mg/kg/day
Procedure: Studies were also conducted herein to evaluate the regulation of macrophage proinflammatory responses in vivo.

[8] = target: dopaminergic D2 receptors (Homo sapiens, UniProt P14416); settings: cited from earlier work
splenocytes = test: Cellular profile of spleen in treated mice (flow cytometry); type: in vivo, C57BL/6 mice
Excerpt: as §2, with “drug treatment on antigen-specific immune responses can be determined at 8 (pre-onset),” for “drug”

EAE [9] = test: EAE model in IL-4Ra-deficient BALB/c mice; type: in vivo; settings: BALB/c mice deficient in IL-4Ra
cholinergic receptors = settings: cited from earlier work
[10] = system: bone marrow-derived macrophages; settings: positive control; La Flamme, unpublished results; cited from earlier work
[11] = 20 μg/ml risperidone or 10 μ/ml clozapine
[12] = 20 μg/ml risperidone or 10 μ/ml clozapine, versus vehicle-treated macrophages
[13] = chronic stage, 40 days post immunization
[14] = peak disease, 21 days post immunization
[15] = chronic stage of disease, 40 days after immunization

Sequence of dopaminergic D2 receptors (P14416 whole entry): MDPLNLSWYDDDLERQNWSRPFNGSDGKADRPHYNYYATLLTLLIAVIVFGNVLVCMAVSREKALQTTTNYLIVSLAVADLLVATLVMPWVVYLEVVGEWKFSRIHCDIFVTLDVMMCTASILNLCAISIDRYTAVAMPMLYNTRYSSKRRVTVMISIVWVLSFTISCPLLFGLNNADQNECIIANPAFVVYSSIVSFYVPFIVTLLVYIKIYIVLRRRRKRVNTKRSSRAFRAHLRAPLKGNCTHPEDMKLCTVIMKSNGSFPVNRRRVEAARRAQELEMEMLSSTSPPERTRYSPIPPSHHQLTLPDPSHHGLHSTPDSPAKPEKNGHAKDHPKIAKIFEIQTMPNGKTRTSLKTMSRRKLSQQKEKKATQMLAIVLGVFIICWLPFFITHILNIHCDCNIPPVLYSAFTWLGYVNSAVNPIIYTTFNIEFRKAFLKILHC

For `CN1CCN(C2=Nc3cc(Cl)ccc3Nc3ccccc32)CC1` [clozapine], the “macrophage viability (MTT dye reduction)” value [1, 11] was “fully viable”, the “body weight in normal mice” value [2] was “promotes weight gain” and the serum prolactin (prolactin) was “not observed”.

For `Cc1nc2n(c(=O)c1CCN1CCC(c3noc4cc(F)ccc34)CC1)CCCC2` [risperidone, 3-[2-[4-(6-fluoro-1,2-benzisoxazol-3-yl)-1-piperidinyl]ethyl]-6,7,8,9-tetrahydro-2-methyl-4H-pyrido[1,2-a]pyrimidin-4-one], the “macrophage viability (MTT dye reduction)” value [1, 11] was “fully viable”, the “IL-12 production in response to LPS” value [1, 12] was “produce less” and the “NO production in response to LPS” value [1, 12] was “produce less”. The “IL-10 production in response to LPS” value ([1]; risperidone 20 μg/ml, versus vehicle-treated macrophages) was “produce more”, the “weight loss associated with EAE” value ([2]; mice immunized with MOG peptide) was “reduce the weight loss” and the “body weight in normal mice” value [2] was “promotes weight gain”. For the same compound, the “maximum tolerated dose in mice” value [3] was “unable to identify a maximum tolerated dose”, the toxicity ([3]; mice treated daily with doses up to 10 mg/kg/day for 18 months) was “no toxicity” and the “microglial reactivity (Iba-1 expression)” value (microglia; immunized mice, peak disease (15 days post immunization), cerebellum, brain stem, hippocampus, olfactory bulb) was “greatly reduced”. The “microglial reactivity (Iba-1 expression), treatment after disease onset” value (microglia; treatment starting at day 11 post-immunization, assessed on day 15) was “reduces microglial reactivity”, the “affinity for α2-adrenergic receptors” value (α2-adrenergic receptors) was “lower affinity” and the “production of IL-10 with polyclonal stimulus (ConA)” value ([4]; 21 days post immunization) was “no alteration”. The “production of INF-γ with polyclonal stimulus (ConA)” value ([4]; 21 days post immunization) was “no alteration”, the “MOG specific IFN-γ production” value [4, 13] was “enhance” and the “MOG-specific IL-10 production” value [4, 13] was “no effect”. For the same compound, the “MOG-specific IL-17 production” value [4, 13] was “no effect”, the MOG-specific proliferation [4, 13] was “no effect” and the “production of IFN-γ in response to MOG antigen” value [4, 14] was “does not alter”. For the same compound, the “production of IL-10 in response to MOG antigen” value [4, 14] was “significantly reduce”, the “production of IL-17 in response to MOG antigen” value [4, 14] was “significantly reduce” and the “binding to al-adrenergic receptors” value (al-adrenergic receptors) was “binds”. For the same compound, the “% incidence” value (EAE [5]; 2 independent experiments, same for vehicle group) was 73%, the disease severity (EAE [5]; oral, from one day before immunization with PLP) was “significantly reduced disease severity” and the “protective effect in dose-response” value (EAE [6]; 3 mg/kg/day, p<0.0001 by 2-way ANOVA) was “significant protective effect”. For the same compound, the “area under the curve (AUC), total disease burden” value (EAE [6]; AUC of disease score, risperidone days 0-26, 4 independent experiments) was “reduction”, the “average disease score during the chronic stage” value (EAE [6]; drinking water from one day before immunization) was “stable reduction” and the “detrimental effects on the mice” value (EAE [6]; risperidone 1 or 3 mg/kg/day, immunized or unimmunized mice, aside from slight weight gain) was “no detrimental effects”. For the same compound, the “efficacy of higher versus lower dose” value (EAE [6]; risperidone 3 vs 1 mg/kg/day, clozapine 30 vs 15 mg/kg/day) was 3 mg/kg/day is more effective, the “time of onset or incidence of EAE” value (EAE [6]; risperidone daily from the time of immunization) was “does not alter” and the “CD40 expression on splenic macrophages” value [7] was “reduced CD40 expression”. The “number of CD40-expressing splenic macrophages” value [7] was “not reduced”, the “MHC class II expression on splenic macrophages” value ([7]; clozapine 30 mg/kg/day, versus vehicle-treated immunized mice) was “reduced MHC class II expression” and the “affinity for dopaminergic D2 receptors” value [8] was “high affinity”. For the same compound, the “number of helper T cells (CD4+CD25−) in the spleen” value (splenocytes; [15]) was “does not alter”, the “number of neutrophils (Gr1+ cells) in the spleen” value (splenocytes; [15]) was “reduce” and the “number of regulatory T cells (CD4+CD25+ Treg) in the spleen” value (splenocytes; [15]) was “enhance”. The “overall immune cells in the spleen (total splenocyte numbers)” value (splenocytes; peak disease (day 21), risperidone 3 mg/kg/day, clozapine 30 mg/kg/day, unimmunized and immunized mice) was “does not result in overall loss”, the “reduction in disease symptoms” value (EAE [9]) was “do not experience a reduction in disease symptoms” and the “% incidence versus vehicle” value (EAE [9]; 2 independent experiments) was “no difference in % incidence”. The “serum prolactin (hyperprolactinemia)” value (prolactin; BALB/c mice) was “develop hyperprolactinemia”, the “serum/plasma prolactin (hyperprolactinemia)” value (prolactin; IL-4Ra-deficient BALB/c mice) was “develop hyperprolactinemia” and the serum prolactin (prolactin) was “high levels of serum prolactin”. For the same compound, the “affinity for cholinergic receptors” value (cholinergic receptors) was “no affinity”.

In the case of Glatiramer acetate, the “pro-inflammatory (IL-12) cytokine production by LPS-stimulated macrophages” value [10] is given as “reduce”.
